Test results as given in US11510952B2, “Ethanol extraction of psychoactive compounds from psilocybin fungus” (PSILO SCIENTIFIC LTD, priority 2020, dated 2022).

Tests used:
[1] = pH stability of purified psilocybin / psilocin over time under aqueous conditions; format: physicochemical; conditions: aqueous solutions across the pH spectrum
Excerpt: The dephosphorylated indole alkaloids are well known to be unstable. Internal experiments have also quantified and substantiated these findings under aqueous conditions across the pH spectrum (Tables 5 and 6).

[2] = Solubility of psilocybin and psilocin in solvents; format: physicochemical
Protocol: Psilocybin and psilocin are soluble in methanol and water and are not soluble in isopropanol, ethanol and acetone. Experiments were performed to determine the best solvent compositions for extraction (FIGS. 32B and 32C; Table 7)

CN(C)CCc1c[nH]c2cccc(O)c12 [Psilocin]
maximum stability pH [1]: 4 pH | solubility in acetone [2]: not soluble | solubility in ethanol [2]: not soluble | solubility in isopropanol [2]: not soluble | solubility in methanol [2]: soluble | solubility in water [2]: soluble

CN(C)CCc1c[nH]c2cccc(OP(=O)(O)O)c12 [Psilocybin]
solubility in acetone [2]: not soluble | solubility in ethanol [2]: not soluble | solubility in isopropanol [2]: not soluble | solubility in methanol [2]: soluble | solubility in water [2]: soluble
